Series [1] can be described thus: In vitro metabolic identification study with human liver microsomes. The series is classed as in vitro ADME. The conditions noted are these: 1 hour incubation, parent 5 μM. As to the method: (§1) In vitro metabolic identification studies with, Example 2 and Example 3 with human and rat liver microsomes are summarized in the table below in which the compounds were incubated for 1 hour with rat or human liver microsome preparations.
(§2) The metabolism of unlabelled compound was examined following in vitro incubations with liver microsomes from rat and human. The samples were analyzed by capillary-HPLC/MS^(n) and screened for potential metabolites of the compound.
(Microsomes from liver hold many membrane-bound enzymes, among them those of drug oxidation.)

For series [2], the target named is T1, IGF-1R (Homo sapiens, UniProt P08069).
T1 construct: expressed in transfected cells; host or cells: Hek293 (Hek293-IGF1R)
Briefly: Cellular IGF-1R assay: capture ELISA (MSD) of receptor phosphorylation in Hek293 cells. The series is classed as cell-based. Particulars: Hek293-IGF1R cells, 1 h pre-incubation, 10 min IGF stimulation, pIGF1R capture ELISA. The procedure, abridged:
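IC50 from 4-parameter fit of IGF1R phosphorylation, normalised to IGF-stimulated and unstimulated controls, measured by MSD capture ELISA on lysates. Hek293-IGF1R cells in starvation medium got compound 1 h (top 10 μM, 3-fold steps, 0.1% DMSO) before a 10 min pulse of 1.0 ng/μL IGF.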
(ELISA stands for enzyme-linked immunosorbent assay.)

A short description of series [3]: In vitro metabolic identification study with rat liver microsomes. The series is classed as in vitro ADME. Particulars: for formation of the phenolic metabolite X / metabolic stability relative to ex.102 of WO02/092559: rat and human liver microsomes; for Relative peak area after incubation, Parent / Relative peak area after incubation, Phenol metabolite X: rat liver microsomes, 1 hour incubation, parent 5 μM. As to the method: as §1, §2

Structures are written as SMILES.

For orientation: IC50 means the concentration at which inhibition is half-maximal. A low value points to higher potency.

T1 sequence (P08069 31-1367): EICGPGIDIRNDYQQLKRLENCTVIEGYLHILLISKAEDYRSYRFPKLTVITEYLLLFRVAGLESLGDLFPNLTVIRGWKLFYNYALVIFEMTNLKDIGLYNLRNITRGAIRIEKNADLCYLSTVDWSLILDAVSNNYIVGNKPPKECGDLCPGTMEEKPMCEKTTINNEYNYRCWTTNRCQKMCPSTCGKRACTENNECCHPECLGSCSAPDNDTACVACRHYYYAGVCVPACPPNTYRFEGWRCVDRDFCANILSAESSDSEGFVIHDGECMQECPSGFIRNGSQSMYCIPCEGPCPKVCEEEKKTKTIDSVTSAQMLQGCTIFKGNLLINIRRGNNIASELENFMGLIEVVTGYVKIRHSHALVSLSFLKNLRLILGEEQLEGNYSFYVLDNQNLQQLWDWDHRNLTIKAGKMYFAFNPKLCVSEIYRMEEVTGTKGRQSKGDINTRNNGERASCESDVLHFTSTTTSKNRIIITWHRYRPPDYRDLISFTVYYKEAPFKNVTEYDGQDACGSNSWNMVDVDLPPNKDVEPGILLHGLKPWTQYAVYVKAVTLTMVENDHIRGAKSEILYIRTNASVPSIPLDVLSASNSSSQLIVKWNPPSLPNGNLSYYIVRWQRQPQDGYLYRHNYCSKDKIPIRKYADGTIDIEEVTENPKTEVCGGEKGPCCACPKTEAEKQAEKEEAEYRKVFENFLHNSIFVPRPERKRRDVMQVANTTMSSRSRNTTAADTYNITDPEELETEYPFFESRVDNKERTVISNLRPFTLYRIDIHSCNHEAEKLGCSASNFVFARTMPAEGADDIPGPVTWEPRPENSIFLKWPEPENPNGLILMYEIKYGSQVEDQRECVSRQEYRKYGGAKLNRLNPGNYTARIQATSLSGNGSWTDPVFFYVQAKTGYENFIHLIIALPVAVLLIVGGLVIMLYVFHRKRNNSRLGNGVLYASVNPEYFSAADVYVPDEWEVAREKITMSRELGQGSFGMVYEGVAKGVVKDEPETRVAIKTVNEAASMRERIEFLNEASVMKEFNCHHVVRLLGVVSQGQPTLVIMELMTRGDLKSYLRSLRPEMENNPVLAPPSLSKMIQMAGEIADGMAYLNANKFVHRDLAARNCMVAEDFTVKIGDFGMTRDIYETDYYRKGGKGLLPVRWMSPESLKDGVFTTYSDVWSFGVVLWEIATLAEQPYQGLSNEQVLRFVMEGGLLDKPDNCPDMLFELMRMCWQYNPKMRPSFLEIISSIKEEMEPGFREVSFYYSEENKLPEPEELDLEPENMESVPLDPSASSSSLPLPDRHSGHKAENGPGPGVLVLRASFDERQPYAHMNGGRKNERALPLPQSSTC

Take `Nc1ncnc2c1c(-c1cccc(OC[C@H]3CCCCO3)c1)cn2[C@H]1C[C@@H](CN2CCC2)C1` (single isomer, unassigned) [Example 2]: in series [1], the “Relative peak area after incubation, Parent” value (shortened to “Relative peak area … Parent”) is on record as 90.3% and the “Relative peak area after incubation, Phenol metabolite X” value is recorded as “not detected”. In series [2], this compound displayed an IC50 of 0.051 to 0.099 µM. Also, in series [3], the “formation of the phenolic metabolite X” value is given as “no evidence of formation”; the “metabolic stability relative to ex.102 of WO02/092559” value is given as “Greater metabolic stability”; the “Relative peak area … Parent” value is recorded as 69.3%; the “Relative peak area after incubation, Phenol metabolite X” value is “not detected”. On to `Nc1ncnc2c1c(-c1cccc(OC[C@@H]3CCCCO3)c1)cn2[C@H]1C[C@@H](CN2CCC2)C1` (single isomer, unassigned) [Example 3], for which, in series [1], the “Relative peak area … Parent” value is listed as 81.7% and the “Relative peak area after incubation, Phenol metabolite X” value is “not detected”. Also, the IC50 in series [2] lay in the range of 0.105 to 0.141 µM. In addition, in series [3], the “formation of the phenolic metabolite X” value was “no evidence of formation”; the “metabolic stability relative to ex.102 of WO02/092559” value is recorded as “Greater metabolic stability”; the “Relative peak area … Parent” value came out at 75.8%; the “Relative peak area after incubation, Phenol metabolite X” value is recorded as “not detected”. In series [2], `Nc1ncnc2c1c(-c1cccc(OCC34CCC(CC3)O4)c1)cn2[C@H]1CC[C@@H](CN2CCNC(=O)C2)CC1` [Example 129, 4-(((1S,4S)-4-(5-(3-(7-oxabicyclo[2.2.1]heptan-1-ylmethoxy)phenyl)-4-amino-7H-pyrrolo[2,3-d]pyrimidin-7-yl)cyclohexyl)methyl)piperazin-2-one] had an IC50 of 0.32 µM. Same read-out and setting: with `CC1(C)CCC(COc2cccc(-c3cn([C@H]4C[C@@H](CN5CCS(=O)(=O)CC5)C4)c4ncnc(N)c34)c2)O1` (single isomer, unassigned) [Example 66] the figure was less than 0.004 µM; with `Nc1ncnc2c1c(-c1cccc(OC[C@@H]3CCCO3)c1)cn2[C@H]1C[C@@H](N2CC[S+]([O-])CC2)C1` [Example 234, 7-[cis-3-(1-oxo-thiomorpholin-4-yl)-cyclobutyl]-5-{3-[(S)-1-(tetrahydro-furan-2-yl)methoxy]-phenyl}-7H-pyrrolo[2,3-d]pyrimidin-4-ylamine], 0.309 µM. Same read-out and setting: with `NC(=O)[C@H]1CCCN1C[C@H]1C[C@@H](n2cc(-c3cccc(OCC45CCC(CC4)O5)c3)c3c(N)ncnc32)C1` [Example 75, (R)-1-(cis-3-{4-amino-5-[3-(7-oxa-bicyclo[2.2.1]hept-1-ylmethoxy)-phenyl]-pyrrolo[2,3-d]pyrimidin-7-yl}-cyclobutylmethyl)-pyrrolidine-2-carboxylic acid amide] the figure was 0.008 µM; with `CS(=O)(=O)N1CCN([C@H]2C[C@@H](n3cc(-c4cccc(OCC56CCC(CC5)O6)c4)c4c(N)ncnc43)C2)CC1` (relative stereo) [Example 171, 7-[cis-3-(4-methanesulfonyl-piperazin-1-yl)-cyclobutyl]-5-[3-(7-oxa-bicyclo[2.2.1]hept-1-ylmethoxy)-phenyl]-7H-pyrrolo[2,3-d]pyrimidin-4-ylamine], 0.033 µM. On the same count and under the same terms, the same measure for `Nc1ncnc2c1c(-c1cccc(OCC3CCCCO3)c1)cn2[C@H]1C[C@@H](CN2CCC(F)(F)CC2)C1` (relative stereo) [Example 31, 7-[cis-3-(4,4-difluoro-piperidin-1-ylmethyl)-cyclobutyl]-5-[3-(tetrahydro-pyran-2-ylmethoxy)-phenyl]-7H-pyrrolo[2,3-d]pyrimidin-4-ylamine]: 0.408 µM. Consider `CCC(=O)NCC1CC(n2cc(-c3cccc(OCC45CCC(CC4)O5)c3)c3c(N)ncnc32)C1` (stereo not drawn) [Example 162, N-(3-{4-amino-5-[3-(7-oxa-bicyclo[2.2.1]hept-1-ylmethoxy)-phenyl]-pyrrolo[2,3-d]pyrimidin-7-yl}-cyclobutylmethyl)-propionamide], for which, in series [2], the midpoint of inhibition, the IC50, lay at 0.101 µM. Take `Nc1ncnc2c1c(-c1cccc(OCC34CCC(CC3)O4)c1)cn2C1CCC(CN2CCC(O)C2)CC1` [Example 126, (S)-1-(((1S,4S)-4-(5-(3-(7-oxabicyclo[2.2.1]heptan-1-ylmethoxy)phenyl)-4-amino-7H-pyrrolo[2,3-d]pyrimidin-7-yl)cyclohexyl)methyl)pyrrolidin-3-ol]: the IC50 in series [2] is 0.05 µM. Regarding `Nc1ncnc2c1c(-c1cccc(OCC3CCCCO3)c1)cn2[C@H]1C[C@@H](CN2CC[C@H](O)C2)C1` (stereo partly drawn) [Example 34, (S)-1-(cis-3-{4-amino-5-[3-(tetrahydro-pyran-2-ylmethoxy)-phenyl]-pyrrolo[2,3-d]pyrimidin-7-yl}-cyclobutylmethyl)-pyrrolidin-3-ol], in series [2], the IC50 worked out at 0.333 µM. The same measure, in the same setting: with `Nc1ncnc2c1c(-c1cccc(OCC34CCC(CC3)O4)c1)cn2[C@H]1C[C@@H](N2CCN(CCO)CC2)C1` (relative stereo) [Example 172, 2-[4-(cis-3-{4-amino-5-[3-(7-oxa-bicyclo[2.2.1]hept-1-ylmethoxy)-phenyl]-pyrrolo[2,3-d]pyrimidin-7-yl}-cyclobutyl)-piperazin-1-yl]-ethanol] the figure was 0.021 µM; with `Nc1ncnc2c1c(-c1cccc(OCC34CCC(CC3)O4)c1)cn2[C@H]1CC[C@@H](NC(=O)C2CCOCC2)CC1` [Example 141, N-((1S,4S)-4-(5-(3-(7-oxabicyclo[2.2.1]heptan-1-ylmethoxy)phenyl)-4-amino-7H-pyrrolo[2,3-d]pyrimidin-7-yl)cyclohexyl)tetrahydro-2H-pyran-4-carboxamide], 0.021 µM; with `Nc1ncnc2c1c(-c1cccc(OCC34CCC(CC3)O4)c1)cn2C1CCN(C2COC2)CC1` [Example 118, 5-(3-(7-oxabicyclo[2.2.1]heptan-1-ylmethoxy)phenyl)-7-(1-(oxetan-3-yl)piperidin-4-yl)-7H-pyrrolo[2,3-d]pyrimidin-4-amine], 0.397 µM. Turning to `Nc1ncnc2c1c(-c1cccc(OCC3CCCCO3)c1)cn2[C@H]1C[C@@H](CN2CCC(F)CC2)C1` (relative stereo) [Example 32, 7-[cis-3-(4-fluoro-piperidin-1-ylmethyl)-cyclobutyl]-5-[3-(tetrahydro-pyran-2-ylmethoxy)-phenyl]-7H-pyrrolo[2,3-d]pyrimidin-4-ylamine], in series [2], half-maximal inhibition (IC50) was put at 0.309 µM. Regarding `CC1(C(N)=O)CCCN1CC1CC(n2cc(-c3cccc(OCC4CCCCO4)c3)c3c(N)ncnc32)C1` [Example 93, (2S)-1-(((1s,3R)-3-(4-amino-5-(3-((tetrahydro-2H-pyran-2-yl)methoxy)phenyl)-7H-pyrrolo[2,3-d]pyrimidin-7-yl)cyclobutyl)methyl)-2-methylpyrrolidine-2-carboxamide], the half-inhibitory concentration (IC50) in series [2] was determined as 0.026 µM. The same measure, in the same setting: the same measure for `CC1(C)CCC(COc2cccc(-c3cn([C@H]4C[C@H](CN5CC(O)C5)C4)c4ncnc(N)c34)c2)O1` (relative stereo) [Example 48, 1-(trans-3-{4-amino-5-[3-(5,5-dimethyl-tetrahydro-furan-2-ylmethoxy)-phenyl]-pyrrolo[2,3-d]pyrimidin-7-yl}-cyclobutylmethyl)-azetidin-3-ol]: 0.026 µM; for `NC(=O)[C@H]1CCCN1C[C@H]1C[C@@H](n2cc(-c3cccc(OCC4CCCO4)c3)c3c(N)ncnc32)C1` (stereo partly drawn) [Example 81, (R)-1-(cis-3-{4-amino-5-[3-(tetrahydro-furan-2-ylmethoxy)-phenyl]-pyrrolo[2,3-d]pyrimidin-7-yl}-cyclobutylmethyl)-pyrrolidine-2-carboxylic acid amide]: 0.157 µM. `NC(=O)[C@H]1CCCN1C[C@H]1C[C@H](n2cc(-c3cccc(OCC4CCCO4)c3)c3c(N)ncnc32)C1` (stereo partly drawn) [Example 87, (R)-1-(trans-3-(4-amino-5-[3-(tetrahydro-furan-2-ylmethoxy)-phenyl]-pyrrolo[2,3-d]pyrimidin-7-yl}-cyclobutylmethyl)-pyrrolidine-2-carboxylic acid amide] displayed an IC50 in series [2] of 0.116 µM. The same measure, in the same setting: the same measure for `NC(=O)[C@@H]1CCCN1C[C@H]1C[C@@H](n2cc(-c3cccc(OC[C@H]4CCCCO4)c3)c3c(N)ncnc32)C1` [Example 43, (S)-1-[3-(4-amino-5-{3-[(R)-1-(tetrahydro-pyran-2-yl)methoxy]-phenyl}-pyrrolo[2,3-d]pyrimidin-7-yl)-cyclobutylmethyl]-pyrrolidine-2-carboxylic acid amide]: 0.004 to 0.022 µM. Turning to `Nc1ncnc2c1c(-c1cccc(OCC34CCC(CC3)O4)c1)cn2C1CC(CN2CC3CC2C[S+]3[O-])C1` (single isomer, unassigned) [Example 229], the half-inhibitory concentration (IC50) in series [2] was found to be 0.633 µM. On the same count and under the same terms, the same measure for `CC1(C)CCC(COc2cccc(-c3cn(C4CC(CN5CCC(F)C5)C4)c4ncnc(N)c34)c2)O1` (single isomer, unassigned) [Example 46]: 0.015 µM; for `Nc1ncnc2c1c(-c1cccc(OCC34CCC(CC3)O4)c1)cn2[C@H]1CC[C@@H](CO)CC1` [Example 110, ((1S,4S)-4-(5-(3-(7-oxabicyclo[2.2.1]heptan-1-ylmethoxy)phenyl)-4-amino-7H-pyrrolo[2,3-d]pyrimidin-7-yl)-cyclohexyl)methanol]: 0.59 µM; for `CN1CCN([C@H]2CC[C@@H](n3cc(-c4cccc(OCC5CCC(C)(C)O5)c4)c4c(N)ncnc43)CC2)CC1` (relative stereo) [Example 63, 5-[3-(5,5-dimethyl-tetrahydro-furan-2-ylmethoxy)-phenyl]-7-[cis-4-(4-methyl-piperazin-1-yl)-cyclohexyl]-7H-pyrrolo[2,3-d]pyrimidin-4-ylamine]: 0.061 µM.

(Values after patent US20120165310A1, “ETHER DERIVATIVES OF BICYCLIC HETEROARYLS” (NOVARTIS AG, priority 2009, published 2012).)
